In patent US10010539B2, “Pyrazole, triazole and tetrazole orexin receptor antagonists” (MERCK SHARP & DOHME CORP., priority 2014, dated 2018):

Legend:
human orexin-2 receptor = human orexin-2 receptor (Homo sapiens (Human), UniProt O43614); assay: FLIPR Ca2+ Flux Assay, orexin-2 receptor (hOX2R FLIPR); type: cell-based; conditions: CHO cells expressing the human orexin-2 receptor; agonist 70 pM Ala-6,12 human orexin-A
Procedure: (§1) The utility of the compounds in accordance with the present invention as orexin receptor OX1R and/or OX2R antagonists may be readily determined without undue experimentation by methodology well known in the art, including the “FLIPR Ca^2+ Flux Assay” (Okumura et al., Biochem. Biophys. Res. Comm. 280:976-981, 2001). In a typical experiment the OX1 and OX2 receptor antagonistic activity of the compounds of the present invention was determined in accordance with the following experimental method. For intracellular calcium measurements, Chinese hamster ovary (CHO) cells expressing the rat orexin-1 receptor or the human orexin-2 receptor, are grown in Iscove's modified DMEM containing 2 mM L-glutamine, […], 1% hypoxanthine-thymidine supplement, 100 U/ml penicillin, 100 μg/ml streptomycin and 10% heat-inactivated fetal calf serum (FCS). The cells are seeded at 20,000 cells/well into Becton-Dickinson black 384-well clear bottom sterile plates coated with poly-D-lysine. All reagents were from GIBCO-Invitrogen Corp. The seeded plates are incubated overnight at 37° C. and 5% CO2. Ala-6,12 human orexin-A as the agonist is prepared as a 1 mM stock solution in 1% bovine serum albumin (BSA) and diluted in assay buffer (HBSS containing 20 mM HEPES, 0.1% BSA and 2.5 mM probenecid, pH7.4) for use in the assay at a final concentration of 70 pM. Test compounds are prepared as 10 mM stock solution in DMSO, then diluted in 384-well plates, first in DMSO, then assay buffer. On the day of the assay, cells are washed 3 times with 100 μl assay buffer and then incubated for 60 min (37° C., 5% CO2) in 60 μl assay buffer containing 1 μM Fluo-4AM ester, 0.02% pluronic acid, and 1% BSA. The dye loading solution is then aspirated and cells are washed 3 times with 100 μl assay buffer. 30 μl of that same buffer is left in each well. Within the Fluorescent Imaging Plate Reader (FLIPR, Molecular Devices), test compounds are added to the plate in a volume of 25 μl, incubated for 5 min and finally 25 μl of agonist is added. Fluorescence is measured for each well at 1 second intervals for 5 minutes and the height of each fluorescence peak is compared to the height of the fluorescence peak induced by 70 pM Ala-6,12 orexin-A with buffer in place of antagonist. For each antagonist, IC50 value (the concentration of compound needed to inhibit 50% of the agonist response) is determined. Alternatively, compound potency can be assessed by a radioligand binding assay (described in Bergman et. al. Bioorg. Med. Chem. Lett. 2008, 18, 1425-1430) in which the inhibition constant (Ki) is determined in membranes prepared from CHO cells expressing either the OX1 or OX2 receptor. The intrinsic orexin receptor antagonist activity of a compound which may be used in the present invention may be determined by these assays.

[1] = target: hOXIR (orexin-1 receptor) (Homo sapiens, UniProt O43613); assay: FLIPR Ca2+ Flux Assay, orexin-1 receptor (hOXIR FLIPR); type: cell-based; conditions: CHO cells expressing the orexin-1 receptor (method text: rat; table head: hOXIR); agonist 70 pM Ala-6,12 human orexin-A
Procedure: as §1

Sequence of human orexin-2 receptor (O43614 whole entry): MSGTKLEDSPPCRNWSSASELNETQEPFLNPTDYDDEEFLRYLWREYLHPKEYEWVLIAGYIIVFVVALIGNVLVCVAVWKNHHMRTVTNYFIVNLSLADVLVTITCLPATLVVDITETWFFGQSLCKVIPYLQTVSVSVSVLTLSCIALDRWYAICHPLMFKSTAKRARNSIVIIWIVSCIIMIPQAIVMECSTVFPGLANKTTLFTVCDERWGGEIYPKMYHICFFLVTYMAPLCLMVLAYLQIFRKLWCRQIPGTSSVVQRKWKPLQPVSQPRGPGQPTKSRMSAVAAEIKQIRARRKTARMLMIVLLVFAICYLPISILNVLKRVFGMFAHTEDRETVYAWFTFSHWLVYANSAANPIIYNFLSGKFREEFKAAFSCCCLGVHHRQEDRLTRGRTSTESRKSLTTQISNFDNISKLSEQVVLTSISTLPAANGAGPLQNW

| SMILES | IC50 (human orexin-2 receptor) | IC50 [1] |
| --- | --- | --- |
| Cc1nn([C@@H]2CC[C@@H](C)N(C(=O)c3ccccc3C3CC3)C2)nc1C(C)(C)O [Example 70, 2-(2-{(3R,6R)-1-[(2-Cyclopropylphenyl)carbonyl]-6-methylpiperidin-3-yl}-5-methyl-2H-1,2,3-triazol-4-yl)propan-2-ol] | 0.0088 µM | 0.76 µM |
| COc1ccc(C(=O)N2C[C@H](n3ncc(C(C)(C)O)n3)CC[C@H]2C)c(-n2nccn2)n1 [Example 45, 2-{2-[(3R,6R)-1-{[6-methoxy-2-(2H-1,2,3-triazol-2-yl)pyridin-3-yl]carbonyl}-6-methylpiperidin-3-yl]-2H-1,2,3-triazol-4-yl}propan-2-ol] | 0.0514 µM | > 10 µM |
| C[C@@H]1CC[C@@H](n2ncc(C(C)(C)O)n2)CN1C(=O)c1ccccc1OC(F)F [Example 21, (2-(Difluoromethoxy)phenyl)((2R,5R)-5-(4-(2-hydroxypropan-2-yl)-2H-1,2,3-triazol-2-yl)-2-methylpiperidin-1-yl)methanone] | 0.018 µM | > 10 µM |
| C[C@@H]1CC[C@@H](n2ncc(C(C)(C)O)n2)CN1C(=O)c1ccccc1-c1ccccc1 [Example 2, [1,1′-Biphenyl]-2-yl((2R,5R)-5-(4-(2-hydroxypropan-2-yl)-2H-1,2,3-triazol-2-yl)-2-methylpiperidin-1-yl)methanone] | 0.0162 µM | 0.483 µM |
| C[C@@H]1CC[C@@H](n2cc(C(C)(C)O)cn2)CN1C(=O)c1ccccc1CC(F)F [Example 99, 2-{1-[(3R,6R)-1-{[2-(2,2-Difluoroethyl)phenyl]carbonyl}-6-methylpiperidin-3-yl]-1H-pyrazol-4-yl}propan-2-ol] | 0.0384 µM | > 10 µM |
| Cc1nn([C@@H]2CC[C@@H](C)N(C(=O)c3cccnc3-c3ccccc3)C2)nc1C(C)(C)O [Example 73, 2-(5-Methyl-2-{(3R,6R)-6-methyl-1-[(2-phenylpyridin-3-yl)carbonyl]piperidin-3-yl}-2H-1,2,3-triazol-4-yl)propan-2-ol] | 0.0174 µM | 2.46 µM |
| Cc1noc(-c2cc(F)ccc2C(=O)N2C[C@H](n3ncc(C(C)(C)O)n3)CC[C@H]2C)n1 [Example 41, 2-{2-[(3R,6R)-1-{[4-fluoro-2-(3-methyl-1,2,4-oxadiazol-5-yl)phenyl]carbonyl}-6-methylpiperidin-3-yl]-2H-1,2,3-triazol-4-yl}propan-2-ol] | 0.173 µM | > 10 µM |
| Cc1cnn(-c2ncccc2C(=O)N2C[C@H](n3ncc(C(C)(C)O)n3)CC[C@H]2C)c1 [Example 10, ((2R,5R)-5-(4-(2-Hydroxypropan-2-yl)-2H-1,2,3-triazol-2-yl)-2-methylpiperidin-1-yl)(2-(4-methyl-1H-pyrazol-1-yl)pyridin-3-yl)methanone] | 0.026 µM | > 10 µM |
| C[C@@H]1CC[C@@H](n2cc(C(C)(C)O)cn2)CN1C(=O)c1ccccc1SC(F)(F)F [Example 88, 2-{1-[(3R,6R)-6-Methyl-1-({2-[(trifluoromethyl)sulfanyl]phenyl}carbonyl)piperidin-3-yl]-1H-pyrazol-4-yl}propan-2-ol] | 0.0152 µM | 7.93 µM |
| C[C@@H]1CC[C@@H](n2ncc(-c3ccccc3)n2)CN1C(=O)c1ccccc1-n1nccn1 [Example 28, (2-(2H-1,2,3-triazol-2-yl)phenyl)((2R,5R)-2-methyl-5-(4-phenyl-2H-1,2,3-triazol-2-yl)piperidin-1-yl)methanone] | 0.0697 µM | 0.054 µM |
| C[C@@H]1CC[C@@H](n2ncc(C(C)(C)O)n2)CN1C(=O)c1cccc2ccnn12 [Example 57, 2-{2-[(3R,6R)-6-Methyl-1-(pyrazolo[1,5-a]pyridin-7-ylcarbonyl)piperidin-3-yl]-2H-1,2,3-triazol-4-yl}propan-2-ol] | 0.489 µM | > 10 µM |
| C[C@@H]1CC[C@@H](n2ncc(C(C)(C)O)n2)CN1C(=O)c1ccccc1C1(C#N)CC1 [Example 1, 1-(2-((2R,5R)-5-(4-(2-Hydroxypropan-2-yl)-2H-1,2,3-triazol-2-yl)-2-methylpiperidine-1-carbonyl)phenyl)cyclopropanecarbonitrile] | 0.0138 µM | 1.16 µM |
| C[C@@H]1CC[C@@H](n2cc(C(C)(C)O)cn2)CN1C(=O)c1ccccc1OC(F)(F)F [Example 83, 2-{1-[(3R,6R)-6-Methyl-1-{[2-(trifluoromethoxy)phenyl]carbonyl}piperidin-3-yl]-1H-pyrazol-4-yl}propan-2-ol] | 0.0314 µM | > 10 µM |
| C[C@@H]1CC[C@@H](n2cc(C(C)(C)O)cn2)CN1C(=O)c1ccccc1[C@@H]1CC1(F)F [Example 85, 2-{1-[(3R,6R)-1-({2-[(1S)-2,2-Difluorocyclopropyl]phenyl}carbonyl)-6-methylpiperidin-3-yl]-1H-pyrazol-4-yl}propan-2-ol] | 0.0094 µM | 2.64 µM |
| C[C@@H]1CC[C@@H](n2cc([C@@](C)(O)C(F)(F)F)cn2)CN1C(=O)c1ccccc1-n1nccn1 [Example 105, (2R)-1,1,1-Trifluoro-2-{1-[(3R,6R)-6-methyl-1-{[2-(2H-1,2,3-triazol-2-yl)phenyl]carbonyl}piperidin-3-yl]-1H-pyrazol-4-yl}propan-2-ol] | 0.0094 µM | 2.73 µM |
| COc1ccc(C(=O)N2C[C@H](n3cc(C(C)(C)O)cn3)CC[C@H]2C)c(C2CCC2)n1 [Example 100, 2-(1-{(3R,6R)-1-[(2-Cyclobutyl-6-methoxypyridin-3-yl)carbonyl]-6-methylpiperidin-3-yl}-1H-pyrazol-4-yl)propan-2-ol] | 0.0608 µM | > 10 µM |
| Cc1nn([C@@H]2CC[C@@H](C)N(C(=O)c3ccccc3-n3nccn3)C2)nc1C(C)(C)O [Example 62, 2-{5-Methyl-2-[(3R,6R)-6-methyl-1-{[2-(2H-1,2,3-triazol-2-yl)phenyl]carbonyl}piperidin-3-yl]-2H-1,2,3-triazol-4-yl}propan-2-ol] | 0.0125 µM | 1.25 µM |
| C[C@@H]1CC[C@@H](n2cc(C(C)(C)O)cn2)CN1C(=O)c1cccnc1-n1cccn1 [Example 90, 2-{1-[(3R,6R)-6-Methyl-1-{[2-(1H-pyrazol-1-yl)pyridin-3-yl]carbonyl}piperidin-3-yl]-1H-pyrazol-4-yl}propan-2-ol] | 0.0336 µM | > 10 µM |
| Cc1cccc(-n2nccn2)c1C(=O)N1C[C@H](n2ncc(C(C)(C)O)n2)CC[C@H]1C [Example 53, 2-{2-[(3R,6R)-6-methyl-1-{[2-methyl-6-(2H-1,2,3-triazol-2-yl)phenyl]carbonyl}piperidin-3-yl]-2H-1,2,3-triazol-4-yl}propan-2-ol] | 0.0311 µM | 1.81 µM |
| COCCc1ccccc1C(=O)N1C[C@H](n2ncc(C(C)(C)O)n2)CC[C@H]1C [Example 44, 2-{2-[(3R,6R)-1-{[2-(2-methoxyethyl)phenyl]carbonyl}-6-methylpiperidin-3-yl]-2H-1,2,3-triazol-4-yl}propan-2-ol] | 0.897 µM | > 10 µM |
| C[C@@H]1CC[C@@H](n2ncc([C@@H](O)C(F)(F)F)n2)CN1C(=O)c1ccccc1-n1nccn1 [Example 27, (2-(2H-1,2,3-triazol-2-yl)phenyl)((2R,5R)-2-methyl-5-(4-((R)-2,2,2-trifluoro-1-hydroxyethyl)-2H-1,2,3-triazol-2-yl)piperidin-1-yl)methanone] | 0.0179 µM | 0.505 µM |
| CCOc1ncccc1C(=O)N1C[C@H](n2nc(C)c(C(C)(C)O)n2)CC[C@H]1C [Example 65, 2-(2-{(3R,6R)-1-[(2-Ethoxypyridin-3-yl)carbonyl]-6-methylpiperidin-3-yl}-5-methyl-2H-1,2,3-triazol-4-yl)propan-2-ol] | 0.0151 µM | 2.93 µM |
| C[C@@H]1CC[C@@H](n2cc(C(C)(C)O)cn2)CN1C(=O)c1ccccc1[C@H]1CC1(F)F [Example 86, 2-{1-[(3R,6R)-1-({2-[(1R)-2,2-Difluorocyclopropyl]phenyl}carbonyl)-6-methylpiperidin-3-yl]-1H-pyrazol-4-yl}propan-2-ol] | 0.152 µM | > 10 µM |
